From publication PMC7074199, “Phytochemicals of Minthostachys diffusa Epling and Their Health-Promoting Bioactivities” (Foods, 2020)
Like-named read-outs stand apart in the source and are kept apart here.

Assays:
Oncopeltus fasciatus = tested on: Oncopeltus fasciatus; design: method as in earlier work; settings: cited from earlier work
AChE = tested on: AChE; design: method as in doi:10.1016/j.foodchem.2010.10.050; settings: isolated from Micromeria cilicica; cited from earlier work
BChE = tested on: BChE; design: method as in doi:10.1016/j.foodchem.2010.10.050; settings: isolated from Micromeria cilicica; cited from earlier work
[1] = target: T1, butyrylcholinesterase (BChE) from equine serum (Equus caballus, UniProt P81908); assay: biochemical
T1 construct: butyrylcholinesterase (BChE) from equine serum (lyophilized powder); purchased Sigma-Aldrich (Milan, Italy); host or cells: equine serum
T1 sequence (P81908 whole entry): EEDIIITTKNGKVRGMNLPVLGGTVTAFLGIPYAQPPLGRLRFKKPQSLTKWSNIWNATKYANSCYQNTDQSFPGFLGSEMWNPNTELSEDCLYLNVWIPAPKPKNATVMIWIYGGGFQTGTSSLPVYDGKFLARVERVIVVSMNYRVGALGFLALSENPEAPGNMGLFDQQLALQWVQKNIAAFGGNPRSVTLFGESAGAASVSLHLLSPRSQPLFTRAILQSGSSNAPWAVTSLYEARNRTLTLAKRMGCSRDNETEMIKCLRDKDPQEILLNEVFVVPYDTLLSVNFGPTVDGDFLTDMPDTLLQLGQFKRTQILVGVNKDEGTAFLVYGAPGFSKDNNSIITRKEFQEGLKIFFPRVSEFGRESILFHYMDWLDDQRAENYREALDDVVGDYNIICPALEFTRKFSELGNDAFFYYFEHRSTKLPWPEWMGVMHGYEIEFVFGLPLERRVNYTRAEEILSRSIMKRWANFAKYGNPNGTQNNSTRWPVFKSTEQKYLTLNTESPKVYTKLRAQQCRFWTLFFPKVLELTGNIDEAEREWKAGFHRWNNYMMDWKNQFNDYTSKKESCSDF
Text: (§1) The two prevalent forms of cholinesterase in a healthy brain are acetylcholinesterase (AChE) and butyrylcholinesterase (BChE). Ellman’s reaction to analyse the AChE and BChE inhibition by the samples was used as described before.

[2] = target: T2, acetylcholinesterase (AChE) from Electrophorus electricus (Electrophorus electricus, UniProt O42275); assay: biochemical
T2 construct: purchased Sigma-Aldrich (Milan, Italy) type VI-s
T2 sequence (O42275 24-633): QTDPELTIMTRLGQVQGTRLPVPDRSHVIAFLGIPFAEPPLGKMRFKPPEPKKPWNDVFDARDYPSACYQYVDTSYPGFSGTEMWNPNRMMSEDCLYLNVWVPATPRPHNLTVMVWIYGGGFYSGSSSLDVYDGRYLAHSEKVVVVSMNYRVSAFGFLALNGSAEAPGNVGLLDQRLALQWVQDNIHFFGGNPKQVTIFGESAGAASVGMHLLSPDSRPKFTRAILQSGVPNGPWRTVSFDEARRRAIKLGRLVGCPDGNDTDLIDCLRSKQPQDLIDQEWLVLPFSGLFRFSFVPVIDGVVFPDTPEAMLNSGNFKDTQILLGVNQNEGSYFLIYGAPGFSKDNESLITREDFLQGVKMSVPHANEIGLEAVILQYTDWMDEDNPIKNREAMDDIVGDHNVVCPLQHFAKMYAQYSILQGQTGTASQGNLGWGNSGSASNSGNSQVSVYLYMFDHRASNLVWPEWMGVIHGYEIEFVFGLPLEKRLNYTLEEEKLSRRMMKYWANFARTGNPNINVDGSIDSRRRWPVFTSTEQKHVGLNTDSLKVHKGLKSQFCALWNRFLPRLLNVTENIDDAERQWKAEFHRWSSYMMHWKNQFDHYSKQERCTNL
Text: as §1

[3] = Nitric oxide radical scavenging assay; settings: concentration inhibiting 25% of radicals
Protocol: All M. diffusa samples were tested for their radical scavenging activity by four different in vitro chemical assays targeted against the biological super oxide anion (O2^−) and nitric oxide (NO) radicals, and the synthetic neutral DPPH and cationic ABTS^+ radicals.

[4] = tested on: aged as well as scopolamine-induced amnesic rats; design: method as in doi:10.31024/ajpp.2018.4.6.17; settings: cited from earlier work
[5] = read-out: AChE IC50 (converted)

Structure (SMILES): CC(=O)O[C@H]1[C@H]2O[C@@]2(C)CC[C@H]1C(C)C [(−)-(1S,2R,3R,4S)-1,2-epoxy-1-methyl-4-(1-methylethyl)-cyclohex-3-yl acetate]
- insecticidal activity (Oncopeltus fasciatus): significant insecticidal activity

Structure (SMILES): C[C@H]1[C@H](C)CC[C@]2(C(=O)O)CC[C@]3(C)C(=CC[C@@H]4[C@@]5(C)CC[C@H](O)C(C)(C)[C@@H]5CC[C@]43C)[C@H]12 [Ursolic acid]
- IC50 (AChE): 93.8 µM
- IC50 (BChE): 41.1 µM
- IC50 ([1]; read-out: BChE IC50): 83.5 ± 0.94 µM
- IC50 [2, 5]: 85.3 ± 5.85 µM

Structure (SMILES): O=C1O[C@H]([C@@H](O)CO)C(O)=C1O [ascorbic acid]
- NO IC25 [3]: 4.78 ± 0.09 mg/mL

Structure (SMILES): C=C(C)[C@@H]1CC[C@]2(C(=O)O)CC[C@]3(C)[C@H](CC[C@@H]4[C@@]5(C)CC[C@H](O)C(C)(C)[C@@H]5CC[C@]43C)[C@@H]12 [betulinic acid]
- effect on learning and memory [4]: improves learning and memory
- IC50 [2, 5]: 19.7 µM

Structure (SMILES): COc1ccc2c3c1O[C@H]1C[C@@H](O)C=C[C@@]31CCN(C)C2 [galantamine]
- inhibition at 60 µg/mL ([1]; read-out: BChE inhibition): 67.3 ± 2.61%

Structure (SMILES): CC1(C)CC[C@]2(C(=O)O)CC[C@]3(C)C(=CC[C@@H]4[C@@]5(C)C[C@@H](O)[C@H](O)C(C)(C)[C@@H]5CC[C@]43C)[C@@H]2C1 [maslinic acid]
- IC50 [1]: 10.6 µM
- IC50 [2]: 46.5 µM
